Data on eight molecules can be found in ChEMBL document CHEMBL4017488, “Glucuronides as Potential Anionic Substrates of Human Cytochrome P450 2C8 (CYP2C8)” (J Med Chem, 2017).

The kinact is the rate constant of inactivation at saturating inhibitor. Broadly, the IC50 is the point on the concentration scale where inhibition reaches its midpoint. Low readings indicate greater potency, high ones weaker potency. Broadly, the Km is the concentration of substrate that gives half-maximal velocity. A word on the Vmax: it is the top rate of the reaction or transport when substrate is in excess.

For series [1], the system named is Blood. Briefly: In vivo drug metabolism in human assessed as UGT-mediated deleobuvir acyl glucuronide metabolite formation in blood at 800 mg,po administered as single dose measured up to 12 hrs. In kind it is ADME, organism-based.
The subject of series [2] is Blood. Kind of series: In vivo drug metabolism in human assessed as 3-(2-(1-(2-(5-bromopyrimidin-2-yl)-3-cyclopentyl-1-methyl-1H-indole-6-carboxamido)cyclobutyl)-1-methyl-1H-benzo[d]imidazol-6-yl)propanoic acid metabolite formation in blood at 800 mg,po administered as single dose measured up to 12 hrs by radiolabled assay. In kind it is ADME, organism-based.
For series [3], the system named is Homo sapiens. Kind of series: In vivo drug metabolism in human assessed as CYP2C9-mediated 4'-hydroxydiclofinac metabolite formation. In kind it is ADME, organism-based.
Series [4] is described as follows: In vivo drug metabolism in human assessed as UGT2B7-mediated 4'-hydroxydiclofinac acyl glucuronide level in urine. The series is classed as ADME, organism-based.
The nature of series [5]: In vivo drug metabolism in human assessed as CYP2C8-mediated glucuronide conjugate formation in urine by LC-MS/MS analysis. In kind it is ADME, organism-based.
For series [6], the target named is T1, CYP2C8 (Homo sapiens, UniProt P10632).
T1 sequence (P10632 whole entry): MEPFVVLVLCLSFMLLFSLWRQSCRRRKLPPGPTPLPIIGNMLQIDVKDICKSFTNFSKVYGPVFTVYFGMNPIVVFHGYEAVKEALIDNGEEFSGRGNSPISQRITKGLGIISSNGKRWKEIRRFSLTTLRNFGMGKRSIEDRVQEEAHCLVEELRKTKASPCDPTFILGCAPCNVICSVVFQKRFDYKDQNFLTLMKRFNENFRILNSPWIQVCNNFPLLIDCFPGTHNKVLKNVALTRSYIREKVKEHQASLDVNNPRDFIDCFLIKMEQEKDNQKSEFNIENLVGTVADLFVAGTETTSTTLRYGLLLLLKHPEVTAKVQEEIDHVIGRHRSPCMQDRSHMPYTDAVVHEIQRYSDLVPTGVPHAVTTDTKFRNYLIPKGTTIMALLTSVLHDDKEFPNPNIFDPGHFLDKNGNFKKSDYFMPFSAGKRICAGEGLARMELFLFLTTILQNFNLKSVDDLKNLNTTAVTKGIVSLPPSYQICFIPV
Kind of series: (§1) Inhibition of CYP2C8 in human liver microsomes preincubated for 30 mins followed by substrate addition measured after 2 mins. The series is classed as ADME. As to conditions: human, liver microsomes. (In general: Microsomes from liver hold many membrane-bound enzymes, among them those of drug oxidation.)

For series [7], the target named is T2, Cytochrome P450 2C8 (Homo sapiens, UniProt P10632).
T2 sequence (P10632 whole entry): T1 sequence (P10632 whole entry)
The series is described as §1. In kind it is ADME.

Series [8] deals with T1, CYP2C8. Briefly: (§2) Time dependent inhibition of CYP2C8 in human liver microsomes after 5 mins by LC-MS/MS analysis. The series is classed as ADME. As to conditions: human, liver microsomes.
For series [9], the target named is T2, Cytochrome P450 2C8. The description is as §2. The series is classed as ADME.
Series [10] has as its target T2, Cytochrome P450 2C8. Kind of series: Reversible inhibition of CYP2C8 in human liver microsomes after 5 mins by LC-MS/MS analysis. The series is classed as ADME.
In series [11] the target is T3, CYP1A2 (Homo sapiens, UniProt P05177).
T3 sequence (P05177 whole entry): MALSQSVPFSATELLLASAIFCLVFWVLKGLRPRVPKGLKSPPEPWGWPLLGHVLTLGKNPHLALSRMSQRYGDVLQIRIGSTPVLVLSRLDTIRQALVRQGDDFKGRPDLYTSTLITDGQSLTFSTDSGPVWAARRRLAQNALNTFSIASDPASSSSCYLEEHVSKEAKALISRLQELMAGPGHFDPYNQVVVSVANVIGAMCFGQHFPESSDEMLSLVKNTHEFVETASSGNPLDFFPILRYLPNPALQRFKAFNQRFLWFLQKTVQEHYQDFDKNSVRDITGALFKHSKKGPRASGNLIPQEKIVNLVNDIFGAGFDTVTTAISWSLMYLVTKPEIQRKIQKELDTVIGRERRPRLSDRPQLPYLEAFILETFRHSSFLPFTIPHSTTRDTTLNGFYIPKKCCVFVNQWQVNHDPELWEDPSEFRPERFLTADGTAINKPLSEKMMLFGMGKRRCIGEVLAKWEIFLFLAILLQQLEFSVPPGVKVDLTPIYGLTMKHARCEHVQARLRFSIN
Briefly: (§3) Inactivation of CYP1A2 in human liver microsomes after 5 mins by LC-MS/MS analysis. In kind it is ADME. The settings on record: human, liver microsomes.

Series [12] has as its target T4, Cytochrome P450 1A2 (Homo sapiens, UniProt P05177).
T4 sequence (P05177 whole entry): T3 sequence (P05177 whole entry)
The description is as §3. The series is classed as ADME.

Series [13] can be described thus: In vivo drug metabolism in human assessed as UGT2B7-mediated gemfibrozil-1-O-beta-glucuronide metabolite levels in urine at 450 mg, po after 24 hrs by HPLC analysis. In kind it is ADME, organism-based.
The nature of series [14]: In vivo drug metabolism in human assessed as CYP2C8-mediated gemfibrozil-1-O-beta-glucuronide-2'-benzyl alcohol metabolite levels in urine at 450 mg, po after 24 hrs by HPLC analysis. The series is classed as ADME, organism-based.
A short description of series [15]: In vivo drug metabolism in human assessed as CYP2C8-mediated gemfibrozil-1-O-beta-glucuronide-5'-benzyl alcohol metabolite levels in urine at 450 mg, po after 24 hrs by HPLC analysis. In kind it is ADME, organism-based.
In series [16] the test system is Homo sapiens. Kind of series: In vivo inhibition of CYP2C8 in human assessed as reduction in gemfibrozil-1-O-glucuronide metabolite formation in plasma at 30 mg, po administered as single dose measured after 10 hrs by LC-MS/MS analysis.
Series [17] addresses T2, Cytochrome P450 2C8. Briefly: Inhibition of CYP2C8 in human liver microsomes using paclitaxel as substrate after 5 mins. In kind it is ADME.
The target in series [18] is T2, Cytochrome P450 2C8. Briefly: Inhibition of CYP2C8 in human liver microsomes using paclitaxel as substrate preincubated for 2 to 40 mins followed by NADPH-generating system addition measured after 2 mins. The series is classed as ADME.
Substrate in series [19]: C[C@]12CC[C@@H]3c4ccc(O)cc4CC[C@H]3[C@@H]1CC[C@@H]2O[C@@H]1O[C@H](C(=O)O)[C@@H](O)[C@H](O)[C@H]1O
Kind of series: Drug metabolism in human liver microsomes assessed as CYP2C8-mediated glucuronide conjugate formation per nmol of protein after 30 mins by HPLC-MS/MS analysis. The series is classed as ADME.

Turning to `Cn1c(C2(NC(=O)c3ccc4c(C5CCCC5)c(-c5ncc(Br)cn5)n(C)c4c3)CCC2)nc2ccc(/C=C/C(=O)O)cc21` [DELEOBUVIR], the Drug metabolism is given as 20 %ID in [1] and 15 %ID in [2].
As for `O=C(O)Cc1ccccc1Nc1c(Cl)cccc1Cl` [DICLOFENAC], the Drug metabolism in series [3] is 30 %ID; in series [4], 10 to 20 %ID.
Take `CC(C)Cc1ccc(C(C)C(=O)O)cc1` (stereo not given) [IBUPROFEN]: the Drug metabolism in [5] was in the range of 10 to 15 %ID.
Turning to `O=C(O)[C@H]1O[C@@H](OC(=O)[C@H](c2ccccc2Cl)N2CCc3sccc3C2)[C@H](O)[C@@H](O)[C@@H]1O`, the maximal inactivation rate constant (kinact) at 2 min in series [6] is 0.000783 s⁻¹. The molecule further returned a Ki in series [7] of 9.9 µM.
Turning to `Cn1c(C2(NC(=O)c3ccc4c(C5CCCC5)c(-c5ncc(Br)cn5)n(C)c4c3)CCC2)nc2ccc(/C=C/C(=O)O[C@@H]3O[C@H](C(=O)O)[C@@H](O)[C@H](O)[C@H]3O)cc21`, the kinact at 5 min is 0.000868 s⁻¹ in [8] and 0.000733 s⁻¹ in series [11]. Further, the Ki in series [9] came to 0.0521 µM; in [10], 0.022 µM; in [12], 54.6 µM.
For `Cc1ccc(C)c(OCCCC(C)(C)C(=O)O)c1` [GEMFIBROZIL], the Drug metabolism is listed as 32 %ID in series [13], 20 %ID in [14] and 20 %ID in series [15]. Also, the “inhibition (INH)” value in series [16] was 50%.
`Cc1ccc(C)c(OCCCC(C)(C)C(=O)O[C@@H]2O[C@H](C(=O)O)[C@@H](O)[C@H](O)[C@H]2O)c1` came in with an IC50 in [17] of 24 µM. The same molecule yielded a Ki in series [18] of 52 µM.

B1: Cytochrome P450 2C8 (Homo sapiens) (protein)
chain: T1 sequence (P10632 whole entry)
As to B1, in series [19], the Michaelis-Menten constant (Km) is 88 µM and the Vmax was determined as 0.00186 µmol/min.
